Assay results as given in PubChem BioAssay AID248 (DTP/NCI, 2004).
Values joined by “and” are separate entries in the source; they are usually repeats but may differ in a detail not shown here. Identical values can stand only once. Toxic doses and inconclusive results are not listed. Cut-off read from the data, not from the text of the source: active = T/C of 150% or more; inactive = T/C below 125%. Peptide text beside a SMILES is read from it. * marks the point of attachment. Cbz = O=C(OCc1ccccc1)*

Test system: L1210 leukemia ip in BDF1 mice, survival T/C
Test: NCI In Vivo Anticancer Drug Screen. Data for tumor model L1210 Leukemia (intraperitoneal) in B6D2F1 (BDF1) mice
Conditions: endpoint: mean survival time, higher = longer survival
Outline: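 In this screen, tumor-bearing mice given compound are compared to those given vehicle, and their survival values are reported as a treated-to-control quotient.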

[1] = dose: 100.0 mg/kg/injection, schedule: Q04DX003 (ip), vehicle: saline
[2] = dose: 200.0 mg/kg/injection, schedule: Q04DX003 (ip), vehicle: saline
[3] = dose: 400.0 mg/kg/injection, schedule: Q04DX003 (ip), vehicle: saline
[4] = dose: 200.0 mg/kg/injection, schedule: Q01DX001 (ip), vehicle: saline
[5] = dose: 75.0 mg/kg/injection, schedule: Q01DX001 (ip), vehicle: other
[6] = dose: 150.0 mg/kg/injection, schedule: Q01DX001 (ip), vehicle: other
[7] = dose: 100.0 mg/kg/injection, schedule: Q04DX002 (ip), vehicle: Klucel (hydroxypropylcellulose) (HPC)
[8] = dose: 200.0 mg/kg/injection, schedule: Q04DX002 (ip), vehicle: Klucel (hydroxypropylcellulose) (HPC)
[9] = dose: 400.0 mg/kg/injection, schedule: Q04DX002 (ip), vehicle: Klucel (hydroxypropylcellulose) (HPC)
[10] = dose: 25.0 mg/kg/injection, schedule: Q04DX003 (ip), vehicle: saline
[11] = dose: 50.0 mg/kg/injection, schedule: Q04DX003 (ip), vehicle: saline
[12] = dose: 100.0 mg/kg/injection, schedule: Q04DX003 (ip), vehicle: Klucel (hydroxypropylcellulose) (HPC)
[13] = dose: 50.0 mg/kg/injection, schedule: Q01DX009 (ip), vehicle: saline
[14] = dose: 100.0 mg/kg/injection, schedule: Q01DX009 (ip), vehicle: saline
[15] = dose: 100.0 mg/kg/injection, schedule: Q04DX003 (ip), vehicle: saline with Tween-80
[16] = dose: 200.0 mg/kg/injection, schedule: Q04DX003 (ip), vehicle: saline with Tween-80
[17] = dose: 400.0 mg/kg/injection, schedule: Q04DX003 (ip), vehicle: saline with Tween-80
[18] = dose: 100.0 mg/kg/injection, schedule: Q01DX009 (ip), vehicle: Klucel (hydroxypropylcellulose) (HPC)
[19] = dose: 200.0 mg/kg/injection, schedule: Q01DX009 (ip), vehicle: Klucel (hydroxypropylcellulose) (HPC)
[20] = dose: 400.0 mg/kg/injection, schedule: Q01DX009 (ip), vehicle: Klucel (hydroxypropylcellulose) (HPC)
[21] = dose: 200.0 mg/kg/injection, schedule: Q04DX003 (ip), vehicle: Klucel (hydroxypropylcellulose) (HPC)
[22] = dose: 400.0 mg/kg/injection, schedule: Q04DX003 (ip), vehicle: Klucel (hydroxypropylcellulose) (HPC)
[23] = dose: 100.0 mg/kg/injection, schedule: Q01DX001 (ip), vehicle: Klucel (hydroxypropylcellulose) (HPC)
[24] = dose: 200.0 mg/kg/injection, schedule: Q01DX001 (ip), vehicle: Klucel (hydroxypropylcellulose) (HPC)
[25] = dose: 400.0 mg/kg/injection, schedule: Q01DX001 (ip), vehicle: Klucel (hydroxypropylcellulose) (HPC)
[26] = dose: 100.0 mg/kg/injection, schedule: Q01DX001 (ip), vehicle: saline
[27] = dose: 400.0 mg/kg/injection, schedule: Q01DX001 (ip), vehicle: saline
[28] = dose: 50.0 mg/kg/injection, schedule: Q01DX001 (ip), vehicle: saline
[29] = dose: 12.5 mg/kg/injection, schedule: Q04DX002 (ip), vehicle: saline
[30] = dose: 25.0 mg/kg/injection, schedule: Q04DX002 (ip), vehicle: saline
[31] = dose: 50.0 mg/kg/injection, schedule: Q04DX002 (ip), vehicle: saline
[32] = dose: 200.0 mg/kg/injection, schedule: Q01DX009 (ip), vehicle: saline
[33] = dose: 400.0 mg/kg/injection, schedule: Q01DX009 (ip), vehicle: saline

Measured: T/C

O=C1CSC(=O)N1c1ccccc1
inactive: dose: 100.0 mg/kg/injection, schedule: Q01DX001 (ip), vehicle: saline with Tween-80 107 % of control | [1] 93 % of control | dose: 200.0 mg/kg/injection, schedule: Q01DX001 (ip), vehicle: saline with Tween-80 94 % of control | [2] 100 % of control | dose: 400.0 mg/kg/injection, schedule: Q01DX001 (ip), vehicle: saline with Tween-80 98 % of control | [3] 89 % of control

COc1cc(C(=O)COC(C)=O)cc2c1OC(c1ccccc1)(c1ccccc1)O2
inactive: [4] 86 % of control

COc1cc2c(cc1O)C(Cc1ccc(OC)c(OC)c1)N(C)CC2 (stereo not given)
inactive: [5] 93 % of control | [6] 101 % of control

O=C(O)c1ccc(F)cc1F
inactive: [7] 121 % of control | [8] 105 % of control | [9] 98 % of control

CC[N+](C)(C)CCCOC(=O)C1C2CC3OC(=O)C1C3C2 (stereo not given)
inactive: [10] 101 % of control | [11] 105 % of control | [1] 103 % of control and 108 % of control | [2] 97 % of control

CC(=O)Nc1ccc(C(=O)CCl)cc1
inactive: dose: 25.0 mg/kg/injection, schedule: Q01DX009 (ip), vehicle: Klucel (hydroxypropylcellulose) (HPC) 95 % of control | dose: 25.0 mg/kg/injection, schedule: Q04DX003 (ip), vehicle: Klucel (hydroxypropylcellulose) (HPC) 93 % of control and 101 % of control | dose: 50.0 mg/kg/injection, schedule: Q01DX001 (ip), vehicle: carboxymethylcellulose (CMC) 101 % of control | dose: 50.0 mg/kg/injection, schedule: Q01DX009 (ip), vehicle: Klucel (hydroxypropylcellulose) (HPC) 88 % of control | dose: 50.0 mg/kg/injection, schedule: Q04DX003 (ip), vehicle: Klucel (hydroxypropylcellulose) (HPC) 105 % of control | [12] 110 % of control

CC(C)(C)OC(=O)C(CC(=O)O)NC(=O)OCc1ccccc1 (stereo not given) (tested in a mixture with another compound)
inactive: dose: 25.0 mg/kg/injection, schedule: Q01DX009 (ip), vehicle: saline 101 % of control | [10] 94 % of control | [13] 104 % of control | [11] 94 % of control | [14] 106 % of control | [1] 100 % of control and 91 % of control

COc1ccc(C(C(N)=O)N2CCCC2)cc1 (stereo not given)
inactive: [15] 102 % of control | [16] 96 % of control | [17] 96 % of control

COc1cc(Cl)ccc1NC(=O)Oc1cccc2ccccc12
inactive: [18] 89 % of control | [19] 101 % of control | [20] 95 % of control

COc1ccc(NC(=O)c2cccc(C(=O)Nc3ccc(OC)cc3Cl)c2)c(Cl)c1
inactive: [7] 97 % of control | [8] 97 % of control | [9] 90 % of control

O=C(O)CNC(=O)CNC(=O)OCc1ccccc1 (Cbz-Gly-Gly-OH)
inactive: [18] 95 % of control | [12] 97 % of control | [19] 95 % of control | [21] 101 % of control | [20] 100 % of control | [22] 94 % of control

CCN1CCc2cc3c(cc2C1)OCO3
inactive: dose: 10.0 mg/kg/injection, schedule: Q01DX001 (ip), vehicle: carboxymethylcellulose (CMC) 98 % of control | dose: 20.0 mg/kg/injection, schedule: Q01DX001 (ip), vehicle: carboxymethylcellulose (CMC) 93 % of control | dose: 40.0 mg/kg/injection, schedule: Q01DX001 (ip), vehicle: carboxymethylcellulose (CMC) 94 % of control | dose: 80.0 mg/kg/injection, schedule: Q01DX001 (ip), vehicle: carboxymethylcellulose (CMC) 96 % of control

OCc1ccccc1CN1CCCC1
inactive: [23] 94 % of control | [24] 96 % of control | [25] 97 % of control

CC12CCC3(CC1CC/C(=C\c1ccco1)C2=O)OCCO3 (stereo not given)
inactive: [26] 101 % of control | [1] 108 % of control | [4] 92 % of control | [2] 95 % of control | [27] 97 % of control | [3] 98 % of control

CSc1nc(Cl)c2ccn(C)c2n1
inactive: [5] 100 % of control | [6] 96 % of control | dose: 300.0 mg/kg/injection, schedule: Q01DX001 (ip), vehicle: other 100 % of control

CCCCCCCCCCCCCCCCCC(CCCCCCCCCCCCCCCC)CCCCCCCCCCCCCCCC
inactive: dose: 100.0 mg/kg/injection, schedule: Q01DX001 (ip), vehicle: carboxymethylcellulose (CMC) 96 % of control | dose: 200.0 mg/kg/injection, schedule: Q01DX001 (ip), vehicle: carboxymethylcellulose (CMC) 102 % of control | dose: 400.0 mg/kg/injection, schedule: Q01DX001 (ip), vehicle: carboxymethylcellulose (CMC) 91 % of control

CC1=NN(C)C(=O)C1
inactive: [28] 103 % of control | [26] 103 % of control | [4] 103 % of control | [27] 103 % of control

CCCCCCC(=O)N1C(C)CCCC1C (stereo not given)
inactive: dose: 100.0 mg/kg/injection, schedule: Q04DX002 (ip), vehicle: saline 107 % of control | dose: 200.0 mg/kg/injection, schedule: Q04DX002 (ip), vehicle: saline 103 % of control | dose: 400.0 mg/kg/injection, schedule: Q04DX002 (ip), vehicle: saline 92 % of control

CC[n+]1ccc(C)c2ccccc21
inactive: [29] 102 % of control and 103 % of control | dose: 12.5 mg/kg/injection, schedule: Q04DX003 (ip), vehicle: saline 103 % of control | [30] 95 % of control and 98 % of control | [10] 100 % of control | [31] 95 % of control and 102 % of control | [11] 105 % of control

CCCCCCc1cc[n+](C(=O)c2ccc([N+](=O)[O-])cc2)cc1
inactive: [15] 102 % of control | [16] 104 % of control | [17] 94 % of control

N#Cc1cn(C2OC(CO)C(O)C2O)c2ncn3ccnc3c12 (stereo not given)
inactive: dose: 100.0 mg/kg/injection, schedule: Q04DX003 (ip), vehicle: water 116 % of control | dose: 200.0 mg/kg/injection, schedule: Q04DX003 (ip), vehicle: water 113 % of control and 117 % of control | dose: 300.0 mg/kg/injection, schedule: Q04DX003 (ip), vehicle: water 121 % of control | dose: 500.0 mg/kg/injection, schedule: Q04DX003 (ip), vehicle: water 107 % of control

NC(=O)C1C2C=CC(O2)C1C(=O)O (stereo not given)
inactive: [29] 111 % of control | [30] 97 % of control | [31] 103 % of control

CC(=O)OCc1ccc(-n2c(C(F)(F)F)nc3nc(Cl)c(Cl)nc32)o1
inactive: [13] 97 % of control | [14] 102 % of control | [1] 105 % of control | [32] 96 % of control | [2] 100 % of control | [33] 97 % of control | [3] 88 % of control

O=C(O)C1(NO)CCCC1
inactive: [28] 102 % of control | [26] 121 % of control | [27] 110 % of control

CC(C)CCCC(C)CCC1=C(O)c2ccccc2C(=O)C1=O (stereo not given)
inactive: [23] 102 % of control | [12] 101 % of control | [24] 98 % of control | [21] 97 % of control | [25] 100 % of control | [22] 97 % of control

Cc1ncc(CCO)c(CO)c1O
inactive: [26] 104 % of control | [4] 101 % of control | [27] 106 % of control

CCOC(=O)C1CCC(C(=O)OCC)N1C (stereo not given)
inactive: [26] 97 % of control | [14] 96 % of control | [4] 88 % of control | [32] 98 % of control | [27] 95 % of control | [33] 100 % of control
